Results: patent US20230399289A1, “ITACONIC ACID DERIVATIVES” (Sitryx Therapeutics Limited, priority 2020, published 2023)

Experiments:
hepatocytes [1] = assay: Hepatocyte stability assay, human; assay type: in vitro ADME; conditions: 10 μM compound, 0.5×10^6 cells/mL, 60 min
Excerpt: (§1) Defrosted cryo-preserved hepatocytes (viability>70%) may be used to determine the metabolic stability of a compound via calculation of intrinsic clearance (Clint; a measure of the removal of a compound from the liver in the absence of blood flow and cell binding). Clearance data are particularly important for in vitro work as they can be used in combination with in vivo data to predict the half-life and oral bioavailability of a drug.
(§2) The metabolic stability in hepatocytes assay involves a time-dependent reaction using both positive and negative controls. The cells were pre-incubated at 37° C. and spiked with test compound (and positive control); samples were taken at pre-determined time intervals and analysed to monitor the change in concentration of the initial drug compound over 60 minutes. A buffer incubation reaction (with no hepatocytes present) acted as a negative control and two cocktail solutions, containing compounds with known high and low clearance values (verapamil/7-hydroxycoumarin and propranolol/diltiazem), acted as positive controls. • 1. The assay was run with a cell concentration of 0.5×10^6 cells/mL in Leibovitz buffer. • 2. All compounds and controls were run in duplicate. • 3. Compound concentration was 10 μM. • 4. All compounds and controls were incubated with both cells and buffer to show turnover was due to hepatic metabolism. • 5. All wells on the incubation plate had 326.7 μL of either cells or buffer added. • 6. Prior to assay, cell and buffer-only incubation plates were preincubated for 10 mins at 37° C. • 7. The assay was initiated by adding compounds, 3.3 μL of 1 mM in 10% DMSO-90% Buffer; final DMSO concentration is 0.1%. • 8. Samples were taken at regular timepoints (0, 5, 10, 20, 40, 60 min) until 60 mins. • 9. Sample volume was 40 μL and was added to 160 μL of crash solvent (acetonitrile with internal standard) and stored on ice. • 10. At the end of the assay, the crash plates were centrifuged at 3500 rpm for 20 mins at 4° C. • 11. 80 μL of clear supernatant was removed and mixed with 80 μL of deionised water before being analysed by LC-MS/MS.
(§3) Raw LC-MS/MS data was exported to, and analysed in, Microsoft Excel for determination of intrinsic clearance. The percentage remaining of a compound was monitored using the peak area of the initial concentration as 100%. Intrinsic clearance and half-life values were calculated using a graph of the natural log of percentage remaining versus the time of reaction in minutes. Half-life (min) and intrinsic clearance (Clint in μL min^−1 10^−6 cells) values were calculated using the gradient of the graph (the elimination rate constant, k) and Equations 1 and 2.

[2] = Hepatocyte stability assay, human; assay type: in vitro ADME; conditions: cryopreserved hepatocytes, 10 μM compound, 0.5×10^6 cells/mL, 60 min, read-out: T½
Excerpt: as §1, §2, §3

hepatocytes [3] = assay: Hepatocyte stability assay, mouse; assay type: in vitro ADME; conditions: 10 μM compound, 0.5×10^6 cells/mL, 60 min
Excerpt: as §1, §2, §3

[4] = Hepatocyte stability assay, mouse; assay type: in vitro ADME; conditions: cryopreserved hepatocytes, 10 μM compound, 0.5×10^6 cells/mL, 60 min, read-out: T½
Excerpt: as §1, §2, §3

[5] = system: NRF2 (nuclear factor erythroid 2-related factor 2); assay: NRF2 +/−GSH activation assay (DiscoverX PathHunter NRF2 translocation kit, U2OS cells); assay type: cell-based; conditions: Homo sapiens; for Emax: U2OS, normalised to dimethyl fumarate high control; for EC50: U2OS PathHunter cells, 6 hours
[6] = system: IL-1β cytokine output from THP-1 cells; assay: THP-1 AlphaLISA IL-1β cytokine assay; assay type: cell-based; conditions: Homo sapiens, THP-1, differentiated THP-1 cells, LPS 24 hr then Nigericin 1 hour
Method: (§4) Measuring Inhibitory Effects on IL-1β and IL-6 Cytokine Output from THP-1s
(§5) The cytokine inhibition profiles of compounds of formula (I) were determined in a differentiated THP-1 cell assay. All assays were performed in RPMI-1640 growth medium (Gibco), supplemented with 10% fetal bovine serum (FBS; Gibco), 1% penicillin-streptomycin and 1% sodium pyruvate unless specified otherwise. The IL-1β and IL-6 cytokine inhibition assays were each run in a background of differentiated THP-1 cells as described below. All reagents described were from Sigma-Aldrich unless specified otherwise. Compounds were prepared as 10 mM DMSO stocks.
(§6) THP-1 cells were expanded as a suspension up to 80% confluence in appropriate growth medium. Cells were harvested, suspended, and treated with an appropriate concentration of phorbol 12-myristate 13-acetate (PMA) over a 72 hr period (37° C./5% CO2).
(§7) Following 72 hrs of THP-1 cell incubation, cellular medium was removed and replaced with fresh growth media containing 1% of FBS. Working concentrations of compounds were prepared separately in 10% FBS treated growth medium and pre-incubated with the cells for 30 minutes (37° C./5% CO2). Following the 30 minute compound pre-incubation, THP-1s were treated with an appropriate concentration of LPS and the THP-1s were subsequently incubated for a 24 hr period (37° C./5% CO2). An appropriate final concentration of Nigericin was then dispensed into the THP-1 plates and incubated for 1 hour (37° C./5% CO2) before THP-1 supernatants were harvested and collected in separate polypropylene 96-well holding plates.
(§8) Reagents from each of the […] and IL-6 commercial kits (Perkin Elmer) were prepared and run according to the manufacturer's instructions. Subsequently, fluorescence signal detection in a microplate reader was measured (EnVision® Multilabel Reader, Perkin Elmer).
(§9) Percentage inhibition was calculated per cytokine by normalising the sample data to the high and low controls used within each plate (+/−LPS respectively). Percentage inhibition was then plotted against compound concentration and the 50% inhibitory concentration (IC50) was determined from the resultant concentration-response curve.

[7] = system: IL-6 cytokine output from THP-1 cells; assay: THP-1 AlphaLISA IL-6 cytokine assay; assay type: cell-based; conditions: Homo sapiens, THP-1, differentiated THP-1 cells, LPS 24 hr then Nigericin 1 hour
Method: as §4, §5, §6, §7, §8, §9

[8] = +GSH, 30 minute compound-GSH pre-incubation

| Structure (SMILES) | CIint (hepatocytes [1]) [μL min^−1 10^−6 cells] | half-life at 10 μM [2] [h] | CIint (hepatocytes [3]) [μL min^−1 10^−6 cells] | half-life at 10 μM [4] [h] | Emax ([5]; +GSH) [%] | Emax ([5]; −GSH) [%] | EC50 [5, 8] [µM] | EC50 ([5]; −GSH) [µM] | IC50 [6] [µM] | IC50 [7] [µM] |
| --- | --- | --- | --- | --- | --- | --- | --- | --- | --- | --- |
| C=C(CC(=O)OC1(c2ccc(C(F)(F)F)cc2)CCC1)C(=O)OCCC(=O)O [Example 22, 3-((2-methylene-4-oxo-4-(1-(4-(trifluoromethyl)phenyl)cyclobutoxy)butanoyl)oxy)propanoic acid] | 9 | 2.6 | 128 | 0.2 | 183 | 225 | 22.3 | 14.9 | 10.3 | 11.2 |
| C=C(CC(=O)OC1(c2ccc(Br)cc2)CCC1)C(=O)OCC(=O)O [Example 3, 2-((4-(1-(4-bromophenyl)cyclobutoxy)-2-methylene-4-oxobutanoyl)oxy)acetic acid] | 9 | 2.9 | 95 | 0.333 | – | – | – | – | 12.1 | 11.3 |
| C=C(CC(=O)OC1(c2ccc(Cl)cc2)CCC1)C(=O)OCC(=O)O [Example 4, 2-((4-(1-(4-chlorophenyl)cyclobutoxy)-2-methylene-4-oxobutanoyl)oxy)acetic acid] | 8 | 3.15 | 69 | 0.467 | 171 | 192 | 28.9 | 19 | 12.4 | 6.9 |
| C=C(CC(=O)OC1(c2ccc(OC(F)(F)F)cc2Cl)CCC1)C(=O)OCC(=O)O [Example 6, 2-((4-(1-(2-chloro-4-(trifluoromethoxy)phenyl)cyclobutoxy)-2-methylene-4-oxobutanoyl)oxy)acetic acid] | 18 | 1.42 | >460 | < 0.05 | 187 | 219 | 15.4 | 11.9 | 12.7 | – |
| C=C(CC(=O)OC1(c2cc(Cl)cc(Cl)c2)CCC1)C(=O)OCCC(=O)O [Example 13, 3-((4-(1-(3,5-dichlorophenyl)cyclobutoxy)-2-methylene-4-oxobutanoyl)oxy)propanoic acid] | 16 | 1.67 | >460 | < 0.05 | 143 | 251 | 11.6 | 7.6 | 12.5 | 5.9 |
| C=C(CC(=O)OC1(c2ccc(C(F)(F)F)cc2)CCC1)C(=O)OC1(CC(=O)O)COC1 [Example 33, 2-(3-((2-methylene-4-oxo-4-(1-(4-(trifluoromethyl)phenyl)cyclobutoxy)butanoyl)oxy)oxetan-3-yl)acetic acid] | 7 | 3.37 | 82 | 0.3 | 118 | 162 | 20.7 | 8.4 | 2.4 | 5.7 |
| C=C(CC(=O)OC1(c2ccc(OC(F)(F)F)cc2)CCC1)C(=O)OCC(=O)O [Example 9, 2-((2-methylene-4-oxo-4-(1-(4-(trifluoromethoxy)phenyl)cyclobutoxy)butanoyl)oxy)acetic acid] | 6 | 4.18 | 66 | 0.483 | 182 | 210 | 7.3 | 5.1 | 12.1 | – |
| C=C(CC(=O)OC1(c2ccc(Br)cc2Cl)CCC1)C(=O)OCC(=O)O [Example 12, 2-((4-(1-(4-bromo-2-chlorophenyl)cyclobutoxy)-2-methylene-4-oxobutanoyl)oxy)acetic acid] | 23 | 1.07 | 239 | 0.1 | 158 | 217 | 7.9 | 5.2 | 8.8 | – |
| C=C(CC(=O)OC1(c2ccc(C(F)(F)F)cc2)COC1)C(=O)OCCC(=O)O [Example 32, 3-((2-methylene-4-oxo-4-((3-(4-(trifluoromethyl)phenyl)oxetan-3-yl)oxy)butanoyl)oxy)propanoic acid] | 4 | 6.78 | 36 | 0.683 | – | – | – | – | 7.4 | 11.9 |
| C=C(CC(=O)OC1(c2ccc(C(F)(F)F)cc2)CC1)C(=O)OCC(=O)O [Example 30, 2-((2-methylene-4-oxo-4-(1-(4-(trifluoromethyl)phenyl)cyclopropoxy)butanoyl)oxy)acetic acid] | 16 | 1.43 | 33 | 0.65 | – | – | – | – | 16.7 | > 100 |
| C=C(CC(=O)OC1(c2ccc(Cl)cc2Cl)CCC1)C(=O)OCC(=O)O [Example 10, 2-((4-(1-(2,4-dichlorophenyl)cyclobutoxy)-2-methylene-4-oxobutanoyl)oxy)acetic acid] | 14 | 1.78 | 187 | 0.133 | 175 | 236 | 11.6 | 8.3 | 11.3 | – |
| C=C(CC(=O)OC1(c2cc(F)c(C(F)(F)F)c(F)c2)CCC1)C(=O)OCC(=O)O [Example 19, 2-((4-(1-(3,5-difluoro-4-(trifluoromethyl)phenyl)cyclobutoxy)-2-methylene-4-oxobutanoyl)oxy)acetic acid] | 8 | 3.12 | 66 | 0.383 | – | – | – | – | 4.4 | – |
| C=C(CC(=O)OC1(c2ccc(C(F)(F)F)cc2Cl)CCC1)C(=O)OCC(=O)O [Example 11, 2-((4-(1-(2-chloro-4-(trifluoromethyl)phenyl)cyclobutoxy)-2-methylene-4-oxobutanoyl)oxy)acetic acid] | 10 | 2.53 | 100 | 0.25 | 160 | 214 | 5.1 | 3 | 9 | – |
